{"source": "ChEMBL document CHEMBL5120822", "about": "“Inhibition of the P2X7/NLRP3 Inflammasome Signaling Pathway by Deacetylgedunin from Toona sinensis” (J Nat Prod, 2022)", "key": {"[1]": {"system": "THP-1", "assay": "Antiinflammatory activity against PMA-differentiated and LPS/NIG stimulated human THP-1 cells assessed as increase in cell viability at 5 to 20 uM incubated for 1 hrs followed by LPS stimulation for 12 hrs and NIG addition for 2 hrs by CCK8 assay", "type": "functional, cell-based", "settings": "dose 5-20 µM, time 15.0 hrs"}, "[2]": {"target": "NACHT, LRR and PYD domains-containing protein 3 (Homo sapiens) (UniProt Q96P20)", "sequence (Q96P20 whole entry, the tested form may be a part)": "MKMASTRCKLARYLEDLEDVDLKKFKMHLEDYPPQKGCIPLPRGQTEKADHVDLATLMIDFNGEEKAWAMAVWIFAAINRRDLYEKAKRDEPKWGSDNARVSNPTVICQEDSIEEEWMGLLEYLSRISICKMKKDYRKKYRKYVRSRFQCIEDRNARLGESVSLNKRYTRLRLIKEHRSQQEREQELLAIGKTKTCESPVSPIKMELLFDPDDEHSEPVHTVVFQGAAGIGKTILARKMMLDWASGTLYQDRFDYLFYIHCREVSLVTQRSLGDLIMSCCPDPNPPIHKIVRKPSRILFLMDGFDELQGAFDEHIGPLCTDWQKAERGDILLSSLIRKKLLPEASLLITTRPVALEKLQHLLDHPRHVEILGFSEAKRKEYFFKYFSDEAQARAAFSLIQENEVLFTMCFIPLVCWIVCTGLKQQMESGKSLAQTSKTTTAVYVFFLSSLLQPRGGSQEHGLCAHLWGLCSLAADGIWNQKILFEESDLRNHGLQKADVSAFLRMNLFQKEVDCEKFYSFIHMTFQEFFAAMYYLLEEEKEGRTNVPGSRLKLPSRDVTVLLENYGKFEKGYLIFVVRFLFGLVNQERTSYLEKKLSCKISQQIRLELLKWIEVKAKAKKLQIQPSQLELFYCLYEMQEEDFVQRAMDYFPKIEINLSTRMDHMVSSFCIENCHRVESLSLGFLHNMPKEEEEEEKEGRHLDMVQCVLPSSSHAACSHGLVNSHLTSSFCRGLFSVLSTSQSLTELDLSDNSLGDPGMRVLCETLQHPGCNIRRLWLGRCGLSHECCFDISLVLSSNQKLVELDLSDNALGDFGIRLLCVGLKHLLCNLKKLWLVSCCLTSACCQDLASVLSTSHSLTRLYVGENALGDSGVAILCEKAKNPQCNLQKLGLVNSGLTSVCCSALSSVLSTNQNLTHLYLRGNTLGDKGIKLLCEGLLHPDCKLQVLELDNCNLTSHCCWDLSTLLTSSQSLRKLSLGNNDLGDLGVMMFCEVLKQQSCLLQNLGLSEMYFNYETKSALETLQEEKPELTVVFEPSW", "assay": "Inhibition of NLRP3 inflammasome activation in PMA-differentiated and LPS/MSU-stimulated human THP-1 cells assessed as decrease in pro-caspase-1 expression at 20 uM incubated for 1 hrs followed by LPS stimulation for 12 hrs and MSU addition for 6 hrs by western blot analysis", "type": "cell-based", "settings": "time 19.0 hrs"}, "[3]": {"target": "NACHT, LRR and PYD domains-containing protein 3 (Homo sapiens) (UniProt Q96P20)", "assay": "(§1) Inhibition of NLRP3 inflammasome activation in PMA-differentiated and LPS/ATP-stimulated human THP-1 cells assessed as assessed as increase in potassium ion concentration at 5 to 20 uM incubated for 1 hrs followed by LPS stimulation for 12 hrs and ATP addition for 0.5 hrs by EPG-2 AM staining based confocal microscopy", "type": "cell-based", "settings": "dose 5-20 µM, time 13.5 hrs"}, "[4]": {"target": "NACHT, LRR and PYD domains-containing protein 3 (Homo sapiens) (UniProt Q96P20)", "assay": "Inhibition of NLRP3 inflammasome activation in PMA-differentiated and LPS/ATP-stimulated human THP-1 cells assessed as decrease in IL-1beta expression at 5 to 20 uM incubated for 1 hrs followed by LPS stimulation for 12 hrs and ATP addition for 0.5 hrs by western blot analysis", "type": "cell-based", "settings": "dose 5-20 µM, time 13.5 hrs"}, "[5]": {"system": "THP-1", "assay": "Cytotoxicity against human THP-1 cells derived macrophage assessed as reduction in cell viability upto 40 uM incubated for 24 hrs by CCK-8 assay", "type": "toxicity, cell-based", "settings": "thp-1, 24 h"}, "[6]": {"target": "NACHT, LRR and PYD domains-containing protein 3 (Homo sapiens) (UniProt Q96P20)", "assay": "Inhibition of NLRP3 inflammasome activation in PMA-differentiated and LPS/MSU-stimulated human THP-1 cells assessed as decrease in caspase-1 expression at 20 uM incubated for 1 hrs followed by LPS stimulation for 12 hrs and MSU addition for 6 hrs by western blot analysis", "type": "cell-based", "settings": "time 19.0 hrs"}, "[7]": {"system": "THP-1", "assay": "Antiinflammatory activity against PMA-differentiated and LPS/MSU stimulated human THP-1 cells assessed as increase in cell viability at 5 to 20 uM incubated for 1 hrs followed by LPS stimulation for 12 hrs and MSU addition for 6 hrs by CCK8 assay", "type": "functional, cell-based", "settings": "dose 5-20 µM, time 19.0 hrs"}, "[8]": {"target": "NACHT, LRR and PYD domains-containing protein 3 (Homo sapiens) (UniProt Q96P20)", "assay": "Inhibition of NLRP3 inflammasome activation in PMA-differentiated and LPS/NIG-stimulated human THP-1 cells assessed as decrease of ASC oligomerization at 20 uM incubated for 1 hrs followed by LPS stimulation for 12 hrs and NIG addition for 2 hrs by DAPI staining based immunofluorescence analysis", "type": "cell-based", "settings": "time 15.0 hrs"}, "[9]": {"system": "J774.A1", "assay": "Antiinflammatory activity against LPS/ATP-induced […] cells assessed as inhibition of ROS release at 20 uM incubated for 1 hrs followed by LPS stimulation for 12 hrs and ATP addition for 0.5 hrs by DCFH-DA staining based flow cytometry analysis", "type": "functional, cell-based", "settings": "Mus musculus, time 13.5 hrs"}, "[10]": {"system": "J774.A1", "assay": "Antiinflammatory activity against LPS/ATP-stimulated […] cells assessed as inhibition of ROS release at 20 uM incubated for 1 hrs followed by LPS stimulation for 12 hrs and ATP addition for 0.5 hrs by DCFH-DA staining based confocal microscopy", "type": "functional, cell-based", "settings": "Mus musculus, time 13.5 hrs"}, "[11]": {"target": "NACHT, LRR and PYD domains-containing protein 3 (Homo sapiens) (UniProt Q96P20)", "assay": "Inhibition of NLRP3 inflammasome activation in PMA-differentiated and LPS/ATP-stimulated human THP-1 cells assessed as inhibition of IL-6 secretion at 20 uM incubated for 1 hrs followed by LPS stimulation for 12 hrs and ATP addition for 0.5 hrs by ELISA", "type": "cell-based", "settings": "time 13.5 hrs"}, "[12]": {"target": "NACHT, LRR and PYD domains-containing protein 3 (Homo sapiens) (UniProt Q96P20)", "assay": "Inhibition of NLRP3 inflammasome activation in PMA-differentiated and LPS/NIG-stimulated human THP-1 cells assessed as decrease in IL-1beta expression at 20 uM incubated for 1 hrs followed by LPS stimulation for 12 hrs and NIG addition for 2 hrs by western blot analysis", "type": "cell-based", "settings": "time 15.0 hrs"}, "[13]": {"target": "NACHT, LRR and PYD domains-containing protein 3 (Homo sapiens) (UniProt Q96P20)", "assay": "Inhibition of NLRP3 inflammasome activation in PMA-differentiated and LPS/ATP-stimulated human THP-1 cells assessed as decrease in caspase-1 expression at 5 to 20 uM incubated for 1 hrs followed by LPS stimulation for 12 hrs and ATP addition for 0.5 hrs by western blot analysis", "type": "cell-based", "settings": "dose 5-20 µM, time 13.5 hrs"}, "[14]": {"target": "NACHT, LRR and PYD domains-containing protein 3 (Homo sapiens) (UniProt Q96P20)", "assay": "Inhibition of NLRP3 inflammasome activation in PMA-differentiated and LPS/NIG-stimulated human THP-1 cells assessed as decrease in pro-caspase-1 expression at 20 uM incubated for 1 hrs followed by LPS stimulation for 12 hrs and NIG addition for 2 hrs by western blot analysis", "type": "cell-based", "settings": "time 15.0 hrs"}, "[15]": {"system": "J774.1", "assay": "Cytotoxicity against mouse J774.1 cells derived macrophage assessed as reduction in cell viability upto 40 uM incubated for 24 hrs by CCK-8 assay", "type": "toxicity, cell-based", "settings": "j774.1, 24 h"}, "[16]": {"target": "NACHT, LRR and PYD domains-containing protein 3 (Homo sapiens) (UniProt Q96P20)", "assay": "as §1, with “flow cytometry” for “confocal microscopy”", "type": "cell-based", "settings": "dose 5-20 µM, time 13.5 hrs"}, "[17]": {"system": "THP-1", "assay": "Antiinflammatory activity against PMA-differentiated human THP-1 cells assessed as reduction in IL-1beta level at 20 uM incubated for 1 hrs followed by LPS stimulation for 12 hrs and ATP addition for 0.5 hrs by ELISA", "type": "functional, cell-based", "settings": "time 13.5 hrs"}, "[18]": {"system": "THP-1", "assay": "Cytotoxicity against human THP-1 cells assessed as survival rate at < 40 uM by CCK8 assay", "type": "toxicity, cell-based", "settings": "thp-1, 40 µM"}, "[19]": {"target": "NACHT, LRR and PYD domains-containing protein 3 (Homo sapiens) (UniProt Q96P20)", "assay": "Inhibition of NLRP3 inflammasome activation in PMA-differentiated and LPS/NIG-stimulated human THP-1 cells assessed as inhibition of IL-1beta secretion at 20 uM incubated for 1 hrs followed by LPS stimulation for 12 hrs and NIG addition for 2 hrs by ELISA", "type": "cell-based", "settings": "time 15.0 hrs"}}, "note": "Active and inactive are the calls of the source. No cut-off for these calls is given here.", "data": [{"smiles": "CC1(C)C(=O)C=C[C@]2(C)[C@H]3CC[C@@]4(C)[C@H](c5ccoc5)OC(=O)[C@H]5O[C@]54[C@]3(C)[C@H](O)C[C@@H]12", "note": "[DEACETYLGEDUNIN]", "values": [{"measurement": "Activity", "setting": "[1]", "result": "Active"}, {"measurement": "inhibition", "setting": "[2]", "result": "Active"}, {"measurement": "inhibition", "setting": "[3]", "result": "Active"}, {"measurement": "inhibition", "setting": "[4]", "result": "Active"}, {"measurement": "Activity", "setting": "[5]", "result": "Non-Toxic"}, {"measurement": "inhibition", "setting": "[6]", "result": "Active"}, {"measurement": "Activity", "setting": "[7]", "result": "Active"}, {"measurement": "inhibition", "setting": "[8]", "result": "Active"}, {"measurement": "Activity", "setting": "[9]", "result": "Active"}, {"measurement": "Activity", "setting": "[10]", "result": "Active"}, {"measurement": "inhibition", "setting": "[11]", "result": "Active"}, {"measurement": "inhibition", "setting": "[12]", "result": "Active"}, {"measurement": "inhibition", "setting": "[13]", "result": "Active"}, {"measurement": "inhibition", "setting": "[14]", "result": "Active"}, {"measurement": "Activity", "setting": "[15]", "result": "Non-Toxic"}, {"measurement": "inhibition", "setting": "[16]", "result": "Active"}, {"measurement": "Activity", "setting": "[17]", "result": "Active"}, {"measurement": "Activity", "setting": "[18]", "result": "Non-Toxic"}, {"measurement": "inhibition", "setting": "[19]", "result": "Active"}]}]}
